The half-life is the time needed for the level to fall by half in the phase considered.

The nature of this series: Half-life for the conversion of compound to the corresponding N-peptide under pseudo physiological conditions (0.04 M phosphate, pH 7.4 and 37 degree C). It counts as ADME. Particulars: phosphate buffer.
Consider `CCC(NC(=O)C(N)C(OC(=O)C(NC(=O)OCc1ccccc1)C(C)C)C(C)C)C(=O)NCCc1ccc(OC)c(OC)c1` (stereo not drawn), for which the half-life was 0.0667 h.

On to `CNC1C(=O)NCCCCN(C)C(C(C)C)C(=O)OC1C(C)C` (stereo not drawn), for which the half-life was found to be 6.17 h.

`CCC(NC(=O)C(NC)C(OC(=O)C(NC(=O)OCc1ccccc1)C(C)C)C(C)C)C(=O)NCCc1ccc(OC)c(OC)c1` (stereo not drawn) had a half-life of 1.58 h.

The values above are taken from ChEMBL document CHEMBL1128080, “Structural Factors affecting the kinetics of O,N-acyl transfer in potential O-peptide prodrugs” (Bioorg Med Chem Lett, 1995).
